Experimental data: patent US5583142A, “Analgesic and nootropic drugs” (priority 1992, dated 1996)
Where two headings read alike, the source gives them in different places.

Tests used:
[1] = mouse passive avoidance test, amnesia induced by hypoxia; type: in vivo; settings: 30 to 300 mg/kg i.p.
Description: The nootropic action (learning facilitation, memory enhancement, intelligence booster, cognition activation) was assessed both in mouse and in rat by the two following methods: the mouse was tested by the passive avoidance method, using the so-called light-dark box. A painful stimulus, i.e. an electrically-evoked shock through the animal paws, and an unpleasant but not painful stimulus (mice fall into a water-ice mixture ensuing a sudden dark box floor opening) were used. A non-painful stimulus was required because the data referred to learning had not to be untruthfully negative due to the analgesic action of the claimed molecules. The painful stimulus (electric shock), like the unpleasant but not painful one, was effective at the interval of doses at which the claimed molecules were clearly nootropic but not yet analgesic. Independently of the type of stimulus used, the procedure consists of two experimental phases denominated, respectively, Training and Retention, the latter being carried out 24 hrs after the former. […] To this purpose the time taken by mice to enter the dark box is measured again: the longer the time recorded in the second day when compared with the first (Retention minus Training), the higher the mice learning and memorizing capabilities. […]

[2] = mouse
Description: In FIGS. 7 and 7 bis vertical lines give s.e. mean. Each column represents the mean of 6-10 mice. SM-21 maleate, PG-9 maleate, SM-32 oxalate, cocaine HCl, amphetamine sulphate and caffeine were administered 15 min before test.

[3] = test system: presynaptic muscarinic autoreceptor; settings: cited from earlier work

NC(=O)CN1CCCC1=O [Piracetam]
effect on amnesia induced by hypoxia [1]: inactive

CC(N)Cc1ccccc1 (centres unmarked) [amphetamine]
motor activity and curiosity (exploration activity) ([2]; FIG. 7 and FIG. 7 bis): remarkably increase the motor activity

Cn1c(=O)c2c(ncn2C)n(C)c1=O [caffeine]
motor activity and curiosity (exploration activity) ([2]; FIG. 7 and FIG. 7 bis): remarkably increase the motor activity

COC(=O)[C@H]1[C@@H](OC(=O)c2ccccc2)C[C@@H]2CC[C@H]1N2C [cocaine]
motor activity and curiosity (exploration activity) ([2]; in vivo): remarkably increase the motor activity

Cc1cccc(C)c1OCC(C)N (centres unmarked) [mexyletine]
selectivity and efficacy as antagonists of the presynaptic muscarinic autoreceptor [3]: little selective as well as little efficacious

CN1CCC[C@H]1c1cccnc1 [nicotine]
motor activity and curiosity (exploration activity) ([2]; FIG. 7 and FIG. 7 bis): remarkably increase the motor activity

CCN(CC)CCNC(=O)c1ccc(N)cc1 [procainamide]
selectivity and efficacy as antagonists of the presynaptic muscarinic autoreceptor [3]: little selective as well as little efficacious

CCN(CC)CCOC(=O)c1ccc(N)cc1 [procaine]
selectivity and efficacy as antagonists of the presynaptic muscarinic autoreceptor [3]: little selective as well as little efficacious
